Test results taken from patent publication US10844057B2, “Process for preparing JAK inhibitors and intermediates thereof” (priority 2018, dated 2020).
Like-named read-outs stand apart in the source and are kept apart here.

Assays:
JAK1 = JAK1 (Homo sapiens (Human), UniProt P23458); assay: Biochemical JAK kinase assay (LanthaScreen), JAK1; conditions: converted from pIC50 using Cheng-Prusoff; ATP 25 μM
Experimental: (§1) Assay 1: Biochemical JAK Kinase Assays
(§2) A panel of four LanthaScreen JAK biochemical assays (JAK1, 2, 3 and Tyk2) were carried in a common kinase reaction buffer (50 mM HEPES, pH 7.5, 0.01% Brij-35, 10 mM MgCl2, and 1 mM EGTA). Recombinant GST-tagged JAK enzymes and a GFP-tagged STAT1 peptide substrate were obtained from Life Technologies.
(§3) Serially diluted compounds were pre-incubated with each of the four JAK enzymes and the substrate in white 384-well microplates (Corning) at ambient temperature for 1 h. ATP was subsequently added to initiate the kinase reactions in 10 μL total volume, with 1% DMSO. […] Kinase reactions were allowed to proceed for 1 hour at ambient temperature before a 10 μL preparation of EDTA (10 mM final concentration) and Tb-anti-pSTAT1 (pTyr701) antibody (Life Technologies, 2 nM final concentration) in TR-FRET dilution buffer (Life Technologies) was added. The plates were allowed to incubate at ambient temperature for 1 h before being read on the EnVision reader (Perkin Elmer). Emission ratio signals (520 nm/495 nm) were recorded and utilized to calculate the percent inhibition values based on DMSO and background controls.
(§4) For dose-response analysis, percent inhibition data were plotted vs. compound concentrations, and IC50 values were determined from a 4-parameter robust fit model with the Prism software (GraphPad Software). Results were expressed as pIC50 (negative logarithm of IC50) and subsequently converted to pKi (negative logarithm of dissociation constant, Ki) using the Cheng-Prusoff equation.

[1] = Lung and plasma exposure in mice after oral aspiration; assay type: in vivo; conditions: mouse, other: oral aspiration, 50 µg/animal; for Kp at 5 h: Balb/c, lung and plasma, lung ng/g to plasma ng/mL, mice, read-out: Lung to Plasma ratio at 5 hr; for concentration at 5 h: Balb/c mice, 1 mg/mL, 50 μL via oral aspiration
Experimental: Adult Balb/c mice from Harlan were used in the assay. […] Animals were placed in lateral recumbency post dose and monitored for full recovery from anesthesia before being returned to their home cage. Four hours later, animals were once again briefly anesthetized and challenged with either vehicle or IL-13 (0.03 μg total dose delivered, 50 μL total volume) via oral aspiration before being monitored for recovery from anesthesia and returned to their home cage. One hour after vehicle or IL-13 administration, whole blood and lungs were collected for both pSTAT6 detection in lung homogenates using a Perkin Elmer AlphaLISA® SureFire® Ultra™ HVp-STAT6 (Tyr641) assay kit and for total drug concentration analysis in both lung and plasma. Blood samples were centrifuged (Eppendorf centrifuge, 5804R) for 4 minutes at approximately 12,000 rpm at 4° C. to collect plasma. […] Plasma and lung levels of test compound were determined by LC-MS analysis against analytical standards constructed into a standard curve in the test matrix. A lung to plasma ratio was determined as the ratio of the lung concentration in ng/g to the plasma concentration in ng/mL at 5 hours.

JAK2 = JAK2 (Homo sapiens (Human), UniProt O60674); assay: Biochemical JAK kinase assay (LanthaScreen), JAK2; conditions: converted from pIC50 using Cheng-Prusoff; ATP 3 μM
Experimental: as §1, §2, §3, §4

Tyk2 = Tyk2 (Homo sapiens (Human), UniProt P29597); assay: Biochemical JAK kinase assay (LanthaScreen), Tyk2; conditions: converted from pIC50 using Cheng-Prusoff; ATP 10 μM
Experimental: as §1, §2, §3, §4

[2] = test system: IL-2 stimulated STAT5 phosphorylation in Tall-1 human T cell line; assay: Inhibition of IL-2 stimulated pSTAT5 in Tall-1 T cells; assay type: cell-based
Experimental: Assay 2: Inhibition of IL-2 Stimulated pSTAT5 in Tall-1 T Cells
The potency of test compounds for inhibition of interleukin-2 (IL-2) stimulated STAT5 phosphorylation was measured in the Tall-1 human T cell line (DSMZ) using AlphaLisa.
Phosphorylated STAT5 was measured via the AlphaLISA SureFire Ultra pSTAT5 (Tyr694/699) kit (PerkinElmer).
Compounds were serially diluted in DMSO and dispensed acoustically to empty wells. Assay media (phenol red-free DMEM (Life Technologies) supplemented with 10% FBS (ATCC)) was dispensed (4 μL/well) and plates shaken at 900 rpm for 10 mins. Cells were seeded at 45,000 cells/well in assay media (4 μL/well), and incubated at 37° C., 5% CO2 for 1 hour, followed by the addition of IL-2 (R&D Systems; final concentration 300 ng/mL) in pre-warmed assay media (4 μL) for 30 minutes. […] The lysate was shaken at 900 rpm for 10 minutes at room temperature (RT). Phosphorylated STAT5 was measured via the pSTAT5 AlphaLisa kit (PerkinElmer). Freshly prepared acceptor bead mixture was dispensed onto lysate (5 μL) under green filtered <100 lux light. Plates were shaken at 900 rpm for 2 mins, briefly spun down, and incubated for 2 hrs at RT in the dark. Donor beads were dispensed (5 μL) under green filtered <100 lux light. Plates were shaken at 900 rpm for 2 minutes, briefly spun down, and incubated overnight at RT in the dark. Luminescence was measured with excitation at 689 nm and emission at 570 nm using an EnVision plate reader (PerkinElmer) under green filtered <100 lux light.
To determine the inhibitory potency of test compounds in response to IL-2, the average emission intensity of beads bound to pSTAT5 was measured in a human T cell line. IC50 values were determined from analysis of the inhibition curves of signal intensity versus compound concentration. Data are expressed as pIC50 (negative decadic logarithm IC50) values (mean±standard deviation).

JAK3 = JAK3 (Homo sapiens (Human), UniProt P52333); assay: Biochemical JAK kinase assay (LanthaScreen), JAK3; conditions: converted from pIC50 using Cheng-Prusoff; ATP 1.6 μM
Experimental: as §1, §2, §3, §4

[3] = test system: TSLP-evoked TARC release in human peripheral blood mononuclear cells; assay: Inhibition of TSLP-evoked TARC release in human peripheral blood mononuclear cells; assay type: cell-based; conditions: Homo sapiens, PBMC, 48 h, read-out: pIC50 ± st. dev., inhibition of TSLP-evoked TARC release (converted)
Excerpt: Assay 4: Inhibition of TSLP-Evoked TARC Release in Human Peripheral Blood Mononuclear Cells
Thymic stromal lymphopoietin (TSLP) and thymus and activation-regulated chemokine (TARC) are overexpressed in asthmatic airways, and correlate with disease severity. In the lungs, TSLP may be released by bronchial epithelial cells in response to allergens and viral infections. TSLP signals through an IL-7Rα/TSLPR heterodimer found in a broad range of tissues and cell types, including epithelial cells, endothelial cells, neutrophils, macrophages, and mast cells. The binding of TSLP to its receptor induces a conformational change that activates JAK1 and JAK2 to phosphorylate various transcription factors, including STAT3 and STAT5. In immune cells, this triggers a cascade of intracellular events that result in cell proliferation, anti-apoptosis, dendritic cell migration, and production of Th2 cytokines and chemokines. In peripheral blood mononuclear cells (PBMC), TSLP has a proinflammatory effect by activating myeloid dendritic cells to attract and stimulate T cells, a process mediated by the chemoattractant TARC.
The potencies of the test compounds were measured for inhibition of TARC release.
PBMC aliquots (previously isolated from whole blood and frozen in aliquots at −80° C.) from 3 to 5 donors were thawed at 37° C. and added dropwise to 40 mL pre-warmed, sterile-filtered, complete RPMI media in 50 mL Falcon tubes. Cells were pelleted and resuspended in complete media at 2.24×10^6 cells/mL. […] Cells were allowed to rest for 1 hour at 37° C. with 5% CO2.
Compounds were received as 10 mM stock solutions in DMSO. 3.7-fold serial dilutions were performed to generate 9 concentrations of test compound in DMSO at 300× the final assay test concentration. […] 95 μL of 0.2% DMSO in complete media was added to the untreated control wells. Cells were pre-treated with compound for 1 hour at 37° C. with 5% CO2 prior to stimulation.
Immediately prior to use, an aliquot was thawed and prepared at 20× the final assay concentration in complete media. 10 μL of 20×TSLP was added to each well of PBMC, for a final assay concentration of 10 ng/mL. 10 μL of complete media was added to the unstimulated control wells. Cells were stimulated in the presence of compound for 48 hours at 37° C. with 5% CO2.
Following stimulation, the cell culture supernatants were harvested and TARC levels were detected by enzyme-linked immunosorbent assay (ELISA), using Human CCL17/TARC Quantikine ELISA Kit (R&D Systems # DDN00) according to the manufacturer's instructions.
For dose response analysis, the log [test compound (M)] was plotted versus the percent response values for each donor, and IC50 values were determined using a nonlinear regression analysis with GraphPad Prism Software using the 4-parameter sigmoidal dose-response algorithm with variable slope. Data are expressed as mean pIC50 (negative decadic logarithm IC50) values calculated from pIC50 values of individual donors and rounded to one decimal place.

[4] = lung, read-out: Lung Concentration (ng/g) at 5 hr
[5] = plasma, read-out: Plasma Concentration (ng/mL) at 5 hr
[6] = IL-2 300 ng/mL, pSTAT5 AlphaLisa, Tall-1 cells, read-out: Tall-1 pIC50 (converted)
[7] = TALL-1, read-out: Tall-1 pIC50 (converted)

Chain of JAK3 (P52333 whole entry): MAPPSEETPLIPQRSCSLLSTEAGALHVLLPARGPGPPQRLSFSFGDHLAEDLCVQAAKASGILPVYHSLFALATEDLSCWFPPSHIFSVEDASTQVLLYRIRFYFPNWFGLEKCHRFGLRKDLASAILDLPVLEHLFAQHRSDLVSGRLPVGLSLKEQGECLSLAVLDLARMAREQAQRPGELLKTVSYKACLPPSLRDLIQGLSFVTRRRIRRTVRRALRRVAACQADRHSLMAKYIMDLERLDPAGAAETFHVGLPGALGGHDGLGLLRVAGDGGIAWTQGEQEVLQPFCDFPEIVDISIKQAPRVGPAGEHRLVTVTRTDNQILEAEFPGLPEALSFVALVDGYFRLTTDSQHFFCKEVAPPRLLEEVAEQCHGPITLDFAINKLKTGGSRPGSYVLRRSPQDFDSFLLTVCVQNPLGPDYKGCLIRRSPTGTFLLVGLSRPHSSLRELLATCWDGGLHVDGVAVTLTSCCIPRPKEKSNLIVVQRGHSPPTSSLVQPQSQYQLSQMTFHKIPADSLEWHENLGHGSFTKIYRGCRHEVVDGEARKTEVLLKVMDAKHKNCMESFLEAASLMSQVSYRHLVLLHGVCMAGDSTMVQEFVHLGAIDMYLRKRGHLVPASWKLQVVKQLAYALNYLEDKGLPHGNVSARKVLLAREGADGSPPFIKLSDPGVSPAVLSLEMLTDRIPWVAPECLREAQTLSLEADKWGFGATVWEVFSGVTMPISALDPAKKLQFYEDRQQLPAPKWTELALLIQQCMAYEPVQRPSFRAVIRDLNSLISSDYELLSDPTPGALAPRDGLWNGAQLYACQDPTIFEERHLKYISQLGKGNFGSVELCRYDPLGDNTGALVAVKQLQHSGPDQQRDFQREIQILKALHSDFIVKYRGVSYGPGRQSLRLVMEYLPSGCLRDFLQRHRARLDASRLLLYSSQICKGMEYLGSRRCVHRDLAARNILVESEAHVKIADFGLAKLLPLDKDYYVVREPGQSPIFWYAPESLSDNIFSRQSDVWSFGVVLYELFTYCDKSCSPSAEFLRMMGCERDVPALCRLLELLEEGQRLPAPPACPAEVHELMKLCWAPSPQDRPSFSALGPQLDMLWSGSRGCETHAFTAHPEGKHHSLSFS
Chain of JAK1 (P23458 whole entry): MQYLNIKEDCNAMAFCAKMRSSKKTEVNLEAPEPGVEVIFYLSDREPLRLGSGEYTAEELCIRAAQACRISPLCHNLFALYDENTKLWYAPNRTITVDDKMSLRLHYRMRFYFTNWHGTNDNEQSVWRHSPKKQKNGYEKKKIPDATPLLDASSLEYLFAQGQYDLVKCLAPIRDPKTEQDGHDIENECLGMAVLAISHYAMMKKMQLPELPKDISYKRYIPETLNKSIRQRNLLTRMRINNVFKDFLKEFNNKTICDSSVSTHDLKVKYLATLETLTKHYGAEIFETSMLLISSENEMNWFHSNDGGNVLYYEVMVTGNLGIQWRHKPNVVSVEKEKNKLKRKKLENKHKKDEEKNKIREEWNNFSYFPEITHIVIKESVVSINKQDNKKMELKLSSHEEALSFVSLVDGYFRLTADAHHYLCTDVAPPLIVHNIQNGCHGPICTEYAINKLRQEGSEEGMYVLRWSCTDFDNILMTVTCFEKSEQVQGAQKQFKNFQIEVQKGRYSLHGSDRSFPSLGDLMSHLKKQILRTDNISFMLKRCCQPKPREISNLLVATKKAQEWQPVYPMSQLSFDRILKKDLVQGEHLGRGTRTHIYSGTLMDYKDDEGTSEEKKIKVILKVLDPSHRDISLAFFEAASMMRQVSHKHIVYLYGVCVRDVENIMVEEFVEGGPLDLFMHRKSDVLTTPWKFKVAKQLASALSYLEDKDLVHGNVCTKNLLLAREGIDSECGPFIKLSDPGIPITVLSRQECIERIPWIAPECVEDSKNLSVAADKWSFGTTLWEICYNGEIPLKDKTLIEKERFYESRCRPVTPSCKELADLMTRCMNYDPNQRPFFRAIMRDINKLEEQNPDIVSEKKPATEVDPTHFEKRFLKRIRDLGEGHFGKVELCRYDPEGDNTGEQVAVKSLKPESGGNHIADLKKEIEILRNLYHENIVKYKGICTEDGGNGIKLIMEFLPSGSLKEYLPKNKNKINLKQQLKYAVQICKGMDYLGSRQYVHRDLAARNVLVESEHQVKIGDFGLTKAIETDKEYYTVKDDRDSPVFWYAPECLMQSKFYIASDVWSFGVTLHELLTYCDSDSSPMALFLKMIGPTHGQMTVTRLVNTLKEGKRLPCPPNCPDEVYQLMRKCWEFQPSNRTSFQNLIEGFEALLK
Chain of JAK2 (O60674 whole entry): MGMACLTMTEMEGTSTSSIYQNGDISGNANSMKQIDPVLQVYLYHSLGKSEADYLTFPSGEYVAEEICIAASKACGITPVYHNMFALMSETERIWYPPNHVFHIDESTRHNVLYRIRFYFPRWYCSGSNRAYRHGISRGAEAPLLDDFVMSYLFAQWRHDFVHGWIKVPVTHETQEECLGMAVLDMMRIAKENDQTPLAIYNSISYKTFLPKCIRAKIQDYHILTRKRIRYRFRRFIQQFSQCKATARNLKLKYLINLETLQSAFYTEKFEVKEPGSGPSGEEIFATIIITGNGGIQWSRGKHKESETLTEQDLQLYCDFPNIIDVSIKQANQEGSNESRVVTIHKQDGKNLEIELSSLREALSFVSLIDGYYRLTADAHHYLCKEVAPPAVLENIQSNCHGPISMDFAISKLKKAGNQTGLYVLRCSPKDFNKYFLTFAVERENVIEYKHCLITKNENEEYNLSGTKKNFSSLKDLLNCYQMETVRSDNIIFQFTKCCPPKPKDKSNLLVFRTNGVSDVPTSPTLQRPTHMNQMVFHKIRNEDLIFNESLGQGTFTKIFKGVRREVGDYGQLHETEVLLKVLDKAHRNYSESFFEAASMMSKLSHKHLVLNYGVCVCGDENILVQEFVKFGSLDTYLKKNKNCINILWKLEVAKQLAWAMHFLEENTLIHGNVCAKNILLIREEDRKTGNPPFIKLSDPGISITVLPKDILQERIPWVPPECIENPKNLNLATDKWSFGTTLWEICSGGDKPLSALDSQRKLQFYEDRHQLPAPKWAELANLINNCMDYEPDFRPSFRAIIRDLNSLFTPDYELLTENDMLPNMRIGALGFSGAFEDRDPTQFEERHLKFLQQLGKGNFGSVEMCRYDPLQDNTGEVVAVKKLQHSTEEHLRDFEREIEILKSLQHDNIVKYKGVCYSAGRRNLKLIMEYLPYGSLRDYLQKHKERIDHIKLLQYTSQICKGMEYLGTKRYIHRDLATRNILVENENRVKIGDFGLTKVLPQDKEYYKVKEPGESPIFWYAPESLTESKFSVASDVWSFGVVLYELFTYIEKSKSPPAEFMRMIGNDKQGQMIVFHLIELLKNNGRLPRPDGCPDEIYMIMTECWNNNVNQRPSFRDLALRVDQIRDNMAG
Chain of Tyk2 (P29597 whole entry): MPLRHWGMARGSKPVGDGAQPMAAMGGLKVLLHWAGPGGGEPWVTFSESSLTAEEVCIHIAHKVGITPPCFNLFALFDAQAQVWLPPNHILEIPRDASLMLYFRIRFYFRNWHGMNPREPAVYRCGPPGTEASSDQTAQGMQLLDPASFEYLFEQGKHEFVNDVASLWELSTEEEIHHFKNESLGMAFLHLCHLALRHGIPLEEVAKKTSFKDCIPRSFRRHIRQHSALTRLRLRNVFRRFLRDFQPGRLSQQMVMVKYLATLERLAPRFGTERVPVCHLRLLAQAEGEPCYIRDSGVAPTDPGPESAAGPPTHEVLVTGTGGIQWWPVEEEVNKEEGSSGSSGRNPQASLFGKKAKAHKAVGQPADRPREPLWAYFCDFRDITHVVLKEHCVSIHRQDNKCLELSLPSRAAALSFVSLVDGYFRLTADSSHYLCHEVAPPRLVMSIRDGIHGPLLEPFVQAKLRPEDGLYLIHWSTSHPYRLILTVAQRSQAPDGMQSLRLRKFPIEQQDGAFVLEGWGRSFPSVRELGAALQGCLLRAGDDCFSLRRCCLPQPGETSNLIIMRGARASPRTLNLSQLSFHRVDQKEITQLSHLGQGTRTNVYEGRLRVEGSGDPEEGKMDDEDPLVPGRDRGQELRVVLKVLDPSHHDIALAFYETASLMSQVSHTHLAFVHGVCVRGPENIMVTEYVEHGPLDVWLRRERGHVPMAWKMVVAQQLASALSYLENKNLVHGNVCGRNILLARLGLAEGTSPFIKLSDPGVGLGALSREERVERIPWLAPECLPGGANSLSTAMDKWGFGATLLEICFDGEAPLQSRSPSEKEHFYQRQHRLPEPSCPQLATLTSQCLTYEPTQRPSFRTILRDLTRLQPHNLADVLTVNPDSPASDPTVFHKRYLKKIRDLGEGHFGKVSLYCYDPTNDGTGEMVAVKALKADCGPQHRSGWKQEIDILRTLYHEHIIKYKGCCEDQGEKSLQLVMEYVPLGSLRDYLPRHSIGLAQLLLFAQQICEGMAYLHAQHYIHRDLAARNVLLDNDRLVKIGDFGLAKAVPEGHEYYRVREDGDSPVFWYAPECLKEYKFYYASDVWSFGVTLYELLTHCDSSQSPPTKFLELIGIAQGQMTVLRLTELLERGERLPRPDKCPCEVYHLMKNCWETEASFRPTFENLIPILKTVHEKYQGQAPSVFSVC

Compound: CCc1cc(O)ccc1-c1ccc2c(-c3nc4c([nH]3)CN(C(C)C)[C@H](C(=O)N3CC(C)(N(C)C)C3)C4)n[nH]c2c1 [Example 11, (S)-(3-(dimethylamino)-3-methylazetidin-1-yl)(2-(6-(2-ethyl-4-hydroxyphenyl)-1H-indazol-3-yl)-5-isopropyl-4,5,6,7-tetrahydro-3H-imidazo[4,5-c]pyridin-6-yl)methan One]
- JAK1 pKi (JAK1): 10.0
- Kp at 5 h [1]: 271
- concentration at 5 h [1, 4]: 15000 ± 3350 ng/g
- concentration at 5 h [1, 5]: 55 ± 21 ng/mL
- JAK2 pKi (JAK2): 10.8
- Tyk2 pKi (Tyk2): 9.1
- IC50 [2, 6]: 2 nM
- JAK3 pKi (JAK3): 9.9

Compound: CCCN1Cc2[nH]c(-c3n[nH]c4cc(-c5ccc(O)cc5CC)ccc34)nc2C[C@H]1C(=O)N1CC(N(C)C)C1 [Example 12, (S)-(3-(dimethylamino)azetidin-1-yl)(2-(6-(2-ethyl-4-hydroxyphenyl)-1H-indazol-3-yl)-5-propyl-4,5,6,7-tetrahydro-3H-imidazo[4,5-c]pyridin-6-yl)methan One]
- JAK1 pKi (JAK1): 10.5
- Kp at 5 h [1]: 281
- concentration at 5 h [1, 4]: 6940 ± 4250 ng/g
- concentration at 5 h [1, 5]: 25 ± 9 ng/mL
- JAK2 pKi (JAK2): 10.6
- Tyk2 pKi (Tyk2): 9.0
- IC50 [2, 6]: 2 nM
- JAK3 pKi (JAK3): 10.3

Compound: CCCN1Cc2[nH]c(-c3n[nH]c4cc(-c5ccc(O)cc5CC)ccc34)nc2C[C@H]1C(=O)N1CC(C)(N(C)C)C1 [Example 13, (S)-(3-(dimethylamino)-3-methylazetidin-1-yl)(2-(6-(2-ethyl-4-hydroxyphenyl)-1H-indazol-3-yl)-5-propyl-4,5,6,7-tetrahydro-3H-imidazo[4,5-c]pyridin-6-yl)methan One]
- JAK1 pKi (JAK1): 10.3
- Kp at 5 h [1]: 330
- concentration at 5 h [1, 4]: 7460 ± 3080 ng/g
- concentration at 5 h [1, 5]: 23 ± 2.5 ng/mL
- JAK2 pKi (JAK2): 10.5
- Tyk2 pKi (Tyk2): 9.0
- IC50 [2, 6]: 2.51 nM
- JAK3 pKi (JAK3): 9.8

Compound: CCc1cc(O)ccc1-c1ccc2c(-c3nc4c([nH]3)CN(CC)[C@H](C(=O)N3CC(N(C)C)C3)C4)n[nH]c2c1 [Example 9, (S)-(3-(dimethylamino)azetidin-1-yl)(5-ethyl-2-(6-(2-ethyl-4-hydroxyphenyl)-1H-indazol-3-yl)-4,5,6,7-tetrahydro-3H-imidazo[4,5-c]pyridin-6-yl)methanone]
- JAK1 pKi (JAK1): 10.3
- Kp at 5 h [1]: 339
- concentration at 5 h [1, 4]: 7750 ± 1650 ng/g
- concentration at 5 h [1, 5]: 23 ± 6 ng/mL
- JAK2 pKi (JAK2): 10.7
- Tyk2 pKi (Tyk2): 9.2
- IC50 [2, 6]: 2 nM
- JAK3 pKi (JAK3): 10.3

Compound: CCc1cc(O)ccc1-c1ccc2c(-c3nc4c([nH]3)CN(C(C)C)[C@H](C(=O)N3CC[C@H](N(C)C)C3)C4)n[nH]c2c1 [Example 6, ((S)-3-(dimethylamino)pyrrolidin-1-yl)((S)-2-(6-(2-ethyl-4-hydroxyphenyl)-1H-indazol-3-yl)-5-isopropyl-4,5,6,7-tetrahydro-3H-imidazo[4,5-c]pyridin-6-yl)methan One]
- IC50 [2, 7]: 2 nM
- IC50 [3]: 158 nM

Compound: CCc1cc(O)ccc1-c1ccc2c(-c3nc4c([nH]3)CN(CC)[C@H](C(=O)N3CC(C)(N(C)C)C3)C4)n[nH]c2c1 [Example 10, (S)-(3-(dimethylamino)-3-methylazetidin-1-yl)(5-ethyl-2-(6-(2-ethyl-4-hydroxyphenyl)-1H-indazol-3-yl)-4,5,6,7-tetrahydro-3H-imidazo[4,5-c]pyridin-6-yl)methan One]
- JAK1 pKi (JAK1): 10.4
- Kp at 5 h [1]: 216
- concentration at 5 h [1, 4]: 5130 ± 2200 ng/g
- concentration at 5 h [1, 5]: 24 ± 6 ng/mL
- JAK2 pKi (JAK2): 10.6
- Tyk2 pKi (Tyk2): 9.1
- IC50 [2, 6]: 2.51 nM
- JAK3 pKi (JAK3): 10.2

Compound: CCc1cc(O)ccc1-c1ccc2c(-c3nc4c([nH]3)CN(C(C)C)[C@H](C(=O)N3CCCN(C)CC3)C4)n[nH]c2c1 [Example 4, (S)-(2-(6-(2-ethyl-4-hydroxyphenyl)-1H-indazol-3-yl)-5-isopropyl-4,5,6,7-tetrahydro-3H-imidazo[4,5-c]pyridin-6-yl)(4-methyl-1,4-diazepan-1-yl)methanone]
- IC50 [2, 7]: 2.51 nM
- IC50 [3]: 158 nM
